Activity calls are given as the source filed them. No rule for the calls is given here.

The assay deals with P. falciparum stage V gametocytes, BacTiter-Glo ATP, 24 h. The assay can be described thus: viability inhibitors of stage V gametocytes – luminescence, dose response (AID 1117278).

For the compound `O=C(C[N+]12CCC(CC1)C(OC(=O)c1ccccc1)C2)c1ccc([N+](=O)[O-])cc1` (stereo unspecified), the IC50 is > 109 µM (inactive).

The record behind these values is PubChem BioAssay AID1117278 (The Scripps Research Institute Molecular Screening Center, 2014).
